Reference: the supplement of paper PMC10307832

How the values were obtained:
Experiment in all cases: relative viability (nuclei count vs DMSO), 5 days (fraction); higher = more cells survive
A549 = test system: A549
Summary of the method: (§1)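 Lung cancer cell lines in 1536-well plates got either a single drug or a fixed anchor-drug dose together with five library-drug doses (not always all listed) in √10 steps, by pin tool, on the day after seeding. Nuclei were counted after 5 days, and relative viability is the treated-to-vehicle ratio of nuclei counts. Values are medians of duplicate plates.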

HCC-44 = test system: HCC-44
Summary of the method: as §1

NCI-H647 = test system: NCI-H647
Summary of the method: as §1

NCI-H1299 = test system: NCI-H1299
Summary of the method: as §1

HCC-78 = test system: HCC-78
Summary of the method: as §1

NCI-H358 = test system: NCI-H358
Summary of the method: as §1

NCI-H460 = test system: NCI-H460
Summary of the method: as §1

A-427 = test system: A-427
Summary of the method: as §1

NCI-H1792 = test system: NCI-H1792
Summary of the method: as §1

EKVX = test system: EKVX
Summary of the method: as §1

HCC-366 = test system: HCC-366
Summary of the method: as §1

NCI-H1437 = test system: NCI-H1437
Summary of the method: as §1

Q: How did the relative viability (A549; first compound 0.253 µM) turn out when `Nc1cccc2c1CN(C1CCC(=O)NC1=O)C2=O` (stereo unspecified) [Lenalidomide] + CS(=O)(=O)N1CCN(Cc2cc3nc(-c4cccc5[nH]ncc45)nc(N4CCOCC4)c3s2)CC1 [Pictilisib] (partner 1 µM) was run?
A: 0.491

Q: What about the relative viability (A549; first compound 0.8 µM) of the same compound?
A: 0.448

Q: And the relative viability (A549; first compound 2.53 µM)?
A: 0.553

Q: And the relative viability (A549; first compound 8 µM)?
A: 0.52

Q: What about the relative viability (HCC-44; first compound 0.253 µM) of the same compound?
A: 0.525

Q: And the relative viability (HCC-44; first compound 0.8 µM)?
A: 0.409

Q: What about the relative viability (HCC-44; first compound 2.53 µM) of the same compound?
A: 0.58

Q: And the relative viability (HCC-44; first compound 8 µM)?
A: 0.433

Q: And the relative viability (NCI-H647; first compound 0.253 µM)?
A: 0.417

Q: And the relative viability (NCI-H647; first compound 2.53 µM)?
A: 0.535

Q: And the relative viability (NCI-H647; first compound 8 µM)?
A: 0.281

Q: What about the relative viability (NCI-H1299; first compound 0.253 µM) of the same compound?
A: 0.733

Q: What about the relative viability (NCI-H1299; first compound 0.8 µM) of the same compound?
A: 0.923

Q: What about the relative viability (NCI-H1299; first compound 2.53 µM) of the same compound?
A: 0.931

Q: And the relative viability (NCI-H1299; first compound 8 µM)?
A: 0.963

Q: And the relative viability (HCC-78; first compound 0.253 µM)?
A: 0.233

Q: And the relative viability (HCC-78; first compound 0.8 µM)?
A: 0.185

Q: What about the relative viability (HCC-78; first compound 2.53 µM) of the same compound?
A: 0.232

Q: And the relative viability (HCC-78; first compound 8 µM)?
A: 0.174

Q: What about the relative viability (NCI-H358; first compound 0.253 µM) of the same compound?
A: 0.399

Q: And the relative viability (NCI-H358; first compound 0.8 µM)?
A: 0.428

Q: What about the relative viability (NCI-H358; first compound 2.53 µM) of the same compound?
A: 0.384

Q: What about the relative viability (NCI-H358; first compound 8 µM) of the same compound?
A: 0.302

Q: What about the relative viability (NCI-H460; first compound 0.253 µM) of the same compound?
A: 0.363

Q: What about the relative viability (NCI-H460; first compound 0.8 µM) of the same compound?
A: 0.263

Q: What about the relative viability (NCI-H460; first compound 2.53 µM) of the same compound?
A: 0.25

Q: What about the relative viability (NCI-H460; first compound 8 µM) of the same compound?
A: 0.264

Q: And the relative viability (A-427; first compound 0.253 µM)?
A: 0.796

Q: And the relative viability (A-427; first compound 2.53 µM)?
A: 0.744

Q: And the relative viability (A-427; first compound 8 µM)?
A: 0.676

Q: What about the relative viability (NCI-H1792; first compound 0.253 µM) of the same compound?
A: 0.298

Q: And the relative viability (NCI-H1792; first compound 0.8 µM)?
A: 0.192

Q: And the relative viability (NCI-H1792; first compound 2.53 µM)?
A: 0.264

Q: And the relative viability (NCI-H1792; first compound 8 µM)?
A: 0.184

Q: And the relative viability (EKVX; first compound 0.253 µM)?
A: 0.456

Q: What about the relative viability (EKVX; first compound 0.8 µM) of the same compound?
A: 0.39

Q: What about the relative viability (EKVX; first compound 2.53 µM) of the same compound?
A: 0.401

Q: What about the relative viability (EKVX; first compound 8 µM) of the same compound?
A: 0.366

Q: What about the relative viability (HCC-366; first compound 0.253 µM) of the same compound?
A: 0.131

Q: And the relative viability (HCC-366; first compound 0.8 µM)?
A: 0.108

Q: What about the relative viability (HCC-366; first compound 2.53 µM) of the same compound?
A: 0.172

Q: And the relative viability (HCC-366; first compound 8 µM)?
A: 0.157

Q: What about the relative viability (NCI-H1437; first compound 0.253 µM) of the same compound?
A: 0.547

Q: What about the relative viability (NCI-H1437; first compound 0.8 µM) of the same compound?
A: 0.591

Q: And the relative viability (NCI-H1437; first compound 2.53 µM)?
A: 0.592

Q: And the relative viability (NCI-H1437; first compound 8 µM)?
A: 0.344
